# From patent US20100104628A1, “METHOD OF TREATING NEUROBLASTOMA” (priority 2007, published 2010)
# Where two headings read alike, the source gives them in different places.
# Experiments:
# SK—N-BE(2c) (high NET) = assay: Glutathione depletion in vitro, SK-N-BE(2c); type: cell-based
# Method: The NB cell line SK—N-BE(2c) (high net) was treated with MIBG, MIBG-disulfide dimer (MIGB-S—S-MIBG), chloromethyl-MIBG (cmMIBG), and BSO. For comparison, the human breast cancer line MCF7 (no NET) was treated with chloromethyl-MIBG and BSO. At specific times, intracellular glutathione in drug-treated cells was determined relative to that in untreated cells (control).
# SK—N-BE(2c) (high NET) cells were treated with a single concentration of chloromethyl-MIBG (25 μM at t=0). Glutathione concentrations in treated and untreated cells were measured at t=0.5, 1, 2, 3 and 4 hrs. Glutathione levels in drug-treated cells progressively fell, with a concentration 50% that of control at t 4 hrs (FIG. 10B).
# Cells were exposed to 5 μM chloromethyl-MIBG (cmMIBG), 25 μM BSO and a combination of 5 μM chloromethyl-MIBG+25 μM BSO (both) for 7 hrs. Compared to controls, chloromethyl-MIBG alone depleted glutathione by about 30% in SK—N—Be(2c) cells and 8% in MCF7. BSO, as expected, depleted MCF7 and SK—N—Be(2c) by similar amounts (42 and 54% of controls, respectively). In combination studies, chloromethyl-MIBG+BSO depleted levels by about 85% in the SK—N—Be(2c) cells and had much less effect on the MCF7 cells with glutathione reduced by 49% relative to controls.
# SK-N-BE(2c) (NET ++++) = assay: cells; type: cell-based
# MCF7 (NET 0) = assay: in vitro; type: cell-based, human
# in vitro = type: cell-based, human; settings: human; for IC50 at 24 h: 24 hr assay
# SK-N-SH (NET ++) = assay: Cytotoxicity, MTT assay, SK-N-SH; type: cell-based; settings: Homo sapiens, SK-N-SH
# [1] = (101×C3H)F1 male mice, cited from earlier work
structure (smiles),measurement,setting,value
N=C(N)NCc1ccc(CSSCc2ccc(CNC(=N)N)cc2I)c(I)c1 [MIBG-disulfide dimer],effect on glutathione levels,SK—N-BE(2c) (high NET); 5 μM,a transient loss of glutathione was observed
same,time for glutathione to return to pre-treatment levels,SK—N-BE(2c) (high NET); 5 μM,≤ 8 h
same,effect on glutathione levels and cell viability,"SK—N-BE(2c) (high NET); higher concentrations (25 and 100 microM), up to 8 hrs",extensive loss of glutathione and cell viability with no recovery
N=C(N)NCc1ccc(CSC[C@H](NC(=O)CC[C@H](N)C(=O)O)C(=O)NCC(=O)O)c(I)c1 [MIBG-S-Glutathione],IC50,SK-N-BE(2c) (NET ++++),390 µM
same,IC50,MCF7 (NET 0),> 1000 µM
N[C@@H](Cc1ccc(N(CCCl)CCCl)cc1)C(=O)O [Melphalan],IC50,"SK-N-BE(2c) (NET ++++); SK-N-BE(2)-C, 24 h, read-out: Cytotoxicity IC50, 24 hr assay, single agent, 1% DMSO",36.2 ± 5.2 µM
same,IC50,"SK-N-BE(2c) (NET ++++); SK-N-BE(2)-C, 24 h, read-out: Cytotoxicity IC50 of melphalan, 24 hr assay, + 5 μM MIBG",43.5 ± 7 µM
same,IC50,"SK-N-BE(2c) (NET ++++); SK-N-BE(2)-C, 24 h, read-out: Cytotoxicity IC50 of melphalan, 24 hr assay, + 5 μM cmMIBG (Table 2D)",11.3 ± 5.4 µM
same,IC50,"SK-N-BE(2c) (NET ++++); SK-N-BE(2)-C, 24 h, read-out: Cytotoxicity IC50 of melphalan, competition experiment, 24 hr assay, + 5 μM cmMIBG + 5 μM MIBG",22.9 µM
same,IC50,"SK-N-BE(2c) (NET ++++); SK-N-BE(2)-C, 24 h, read-out: Cytotoxicity IC50 of melphalan, competition experiment, 24 hr assay, + 5 μM cmMIBG plus vehicle (no MIBG)",8.1 µM
same,IC50,"SK-N-BE(2c) (NET ++++); SK-N-BE(2)-C, 48 h, read-out: Cytotoxicity IC50, 48 hr assay, single agent, Table 4",25.8 ± 3.5 µM
same,IC50,"SK-N-BE(2c) (NET ++++); SK-N-BE(2)-C, 48 h, read-out: Cytotoxicity IC50 of melphalan, 48 hr assay, + 1 μM cmMIBG added at same time",13.9 ± 4.7 µM
same,IC50,"SK-N-BE(2c) (NET ++++); SK-N-BE(2)-C, 48 h, read-out: Cytotoxicity IC50 of melphalan, 48 hr assay, + 5 μM cmMIBG added at same time",7.3 ± 1.3 µM
same,IC50,"SK-N-BE(2c) (NET ++++); SK-N-BE(2)-C, read-out: Cytotoxicity IC50, 48 hr assay (24 h exposure + 24 h recovery), Table 3",25.8 ± 3.54 µM
same,IC50,"SK-N-BE(2c) (NET ++++); SK-N-BE(2)-C, read-out: Cytotoxicity IC50 of melphalan, 48 hr assay, cells treated with 1 μM cmMIBG for 3 hrs, then melphalan added",14 ± 3.7 µM
same,IC50,"SK-N-BE(2c) (NET ++++); SK-N-BE(2)-C, read-out: Cytotoxicity IC50 of melphalan, 48 hr assay, cells treated with 5 μM cmMIBG for 3 hrs, then melphalan added",10.2 ± 0.9 µM
same,IC50 at 24 h,"in vitro; + 5 μM MIBG, read-out: Cytotoxicity IC50 of melphalan",386 ± 181 µM
same,IC50 at 24 h,"in vitro; + 5 μM cmMIBG (Table 2D), read-out: Cytotoxicity IC50 of melphalan",276 ± 28 µM
same,IC50 at 24 h,"in vitro; single agent, 1% DMSO, read-out: Cytotoxicity IC50",250 ± 112 µM
same,IC50 at 48 h,"in vitro; 48 hr assay (24 h exposure + 24 h recovery), Table 3, read-out: Cytotoxicity IC50",126 ± 28 µM
same,IC50 at 48 h,"in vitro; 48 hr assay, + 1 μM cmMIBG added at same time, read-out: Cytotoxicity IC50 of melphalan",127 ± 17 µM
same,IC50 at 48 h,"in vitro; 48 hr assay, + 5 μM cmMIBG added at same time, read-out: Cytotoxicity IC50 of melphalan",75 ± 25 µM
same,IC50 at 48 h,"in vitro; 48 hr assay, cells treated with 1 μM cmMIBG for 3 hrs, then melphalan added, read-out: Cytotoxicity IC50 of melphalan",60 ± 7 µM
same,IC50 at 48 h,"in vitro; 48 hr assay, cells treated with 5 μM cmMIBG for 3 hrs, then melphalan added, read-out: Cytotoxicity IC50 of melphalan",43 ± 11 µM
same,IC50 at 48 h,"in vitro; 48 hr assay, single agent, Table 4, read-out: Cytotoxicity IC50",126 ± 28 µM
same,IC50,"SK-N-SH (NET ++); 48 h, read-out: Cytotoxicity IC50, 48 hr assay, single agent, Table 4",54.1 ± 13.8 µM
same,IC50,"SK-N-SH (NET ++); 48 h, read-out: Cytotoxicity IC50 of melphalan, 48 hr assay, + 1 μM cmMIBG added at same time",36.7 ± 18.7 µM
same,IC50,"SK-N-SH (NET ++); 48 h, read-out: Cytotoxicity IC50 of melphalan, 48 hr assay, + 5 μM cmMIBG added at same time",29.9 ± 10.6 µM
same,IC50,"SK-N-SH (NET ++); read-out: Cytotoxicity IC50, 48 hr assay (24 h exposure + 24 h recovery), Table 3",54.1 ± 13.8 µM
same,IC50,"SK-N-SH (NET ++); read-out: Cytotoxicity IC50 of melphalan, 48 hr assay, cells treated with 1 μM cmMIBG for 3 hrs, then melphalan added",29.8 ± 4.8 µM
same,IC50,"SK-N-SH (NET ++); read-out: Cytotoxicity IC50 of melphalan, 48 hr assay, cells treated with 5 μM cmMIBG for 3 hrs, then melphalan added",38.4 ± 7.7 µM
same,death rate,"[1]; 20 mg/kg single injection i.p., by one week",100%
same,MTD,"[1]; single injection, i.p.",10 to 15 mg/kg
